One data set deals with KB1P organoids. Nature of the data set: Co-culture of pre-treated splenic T cells with KB1P organoids (MTT, cleaved-caspase 3). Type of data set: cell-based, mouse. To be noted: LCKi 10 μmol/L.
The subject of data set [1] is MMTV-PyMT organoids expressing OVA. Description: Co-culture of OT I T cells with MMTV-PyMT organoids expressing OVA (cleaved-caspase 3). The note with it: LCKi 10 μmol/L. It counts as cell-based, mouse. The procedure:
Experiments were approved by the Animal Welfare Committee of the Netherlands Cancer Institute and were performed in accordance with national guidelines. Mice were housed in individually ventilated cage (IVC) systems under specific pathogen-free conditions and received chow and water ad libitum. FVB/NRj females (Janvier), C57BL/6-Tg (TcraTcrb) 1100Mjb/J females (OT I mice, Jackson laboratory), and ROSA26mTmG FVB females (NKI) were used at 8-20 weeks of age at the time of fat pad injection of tumor organoids or spleen isolation.
For T cells isolated from mouse mammary tumors, T cells were directly co-cultured with tumor organoids after FACS isolation. For T cells isolated from the spleen, T cells were treated for 72 h with PBS or with docetaxel (docetaxel 10 nmol/L), in the presence or absence of an LCKi (10 μmol/L, Merck Millipore, Cat. No. 213743-31-8). To evaluate the docetaxel-specificity of our observations, T cells were treated with paclitaxel 10 nmol/L or carboplatin 50 μmol/L for 72 h. Subsequently, T cells were collected and washed 3 times in PBS to remove residual chemotherapy or LCKi.
Organoids were fixed in 4% paraformaldehyde in PBS for 20 min at room temperature, followed by permeabilization in 0.2% TritonX-100 in PBS for 15 min at room temperature. […]

The test system of data set [2] is A375 (melanoma), EGL1 (hepatobiliary cancer) and MDA-MB-231 (breast cancer); KB1P organoids. Description: Co-culture of cancer cells or KB1P organoids with T cells pretreated with vinblastine. It counts as cell-based, human. To be noted: Jurkat or mouse splenic T cells pretreated with vinblastine; MTT, cleaved caspase 3. An excerpt: Data are shown for three different cell lines derived from human cancer, namely A375 (melanoma), EGL1 (hepatobiliary cancer) and MDA-MB-231 (breast cancer). Organoid apoptosis (determined by cleaved caspase 3 staining) in breast cancer mouse KB1P organoids following co-culture with mouse splenic T cells pretreated with control, vinblastine or colchicine is also shown in FIG. 18. Data are presented as mean with SEM. N=3 biological repeats per repeat.

The values that follow come from patent US20250387481A1, “PRE-TREATED T CELLS FOR USE AS A MEDICAMENT” (STICHTING HET NEDERLANDS KANKER INSTITUUT-ANTONI VAN …, priority 2022, published 2025).

`Nc1ncnc2c1c(-c1ccc(Oc3ccccc3)cc1)cn2C1CCCC1` [LCKi]: the “effect of LCK inhibition on docetaxel-increased cytotoxic activity of CD4 or CD8 T cells” value with KB1P organoids is given as “did not impair”. For the same molecule, in data set [1], the “killing of OVA-expressing organoids by OT I T cells” value is “reduced killing”.

For the molecule `CC[C@]1(O)C[C@@H]2CN(CCc3c([nH]c4ccccc34)[C@@](C(=O)OC)(c3cc4c(cc3OC)N(C)[C@H]3[C@@](O)(C(=O)OC)[C@H](OC(C)=O)[C@]5(CC)C=CCN6CC[C@]43[C@@H]65)C2)C1` [Vinblastine, vinblastine], the “T cell mediated cancer cell killing” value in data set [2] was “induces T cell mediated cancer cell killing”.
